Earlier results as cited in patent publication US6809181B2, “Human beta-defensin-3 (HBD-3), a highly cationic beta-defensin antimicrobial peptide” (University of Iowa Research Foundation, priority 2000, dated 2004).
Converted amounts (≈) assume the structure as drawn. Where two headings read alike, the source gives them in different places.

Assays:
[1] = test system: Staphylococcus epidermidis; settings: n=50; r120; unit assumed; cited from earlier work
[2] = test system: Haemophilus influenzae (penicillin susceptible); settings: n=22, r64, cited from earlier work
Staphylococcus aureus = settings: unit assumed, cited from earlier work
Campylobacter pylori = settings: n=56, r43, cited from earlier work
Ureaplasma urealyticum = settings: unit assumed, cited from earlier work
[3] = test system: Staphylococcus aureus (penicillin resistant); settings: n=35, r98, cited from earlier work
Neisseria gonorrhoeae = settings: n=19, r81, cited from earlier work
[4] = test system: Staphylococcus haemolyticus; settings: n=20; r121; unit assumed; cited from earlier work
Streptococcus spp. = settings: cited from earlier work; for MIC50 / MIC90: unit assumed
Enterococcus spp. = settings: n=35, r52, cited from earlier work
Streptococcus agalactiae = settings: cited from earlier work
[5] = test system: Staphylococcus aureus (methicillin resistant); settings: cited from earlier work
Corynebacterium JK = settings: n=19; r46; unit assumed; cited from earlier work
[6] = test system: Haemophilus influenzae (β-lactamase producer); settings: cited from earlier work
[7] = test system: Haemophilus influenzae (non β-lactamase producer); settings: n=137; r58; cited from earlier work
[8] = test system: Neisseria gonorrhoeae (β-lactamase producer); settings: cited from earlier work
Bacteroides fragilis = settings: n=97, r7, cited from earlier work
Haemophilus influenzae = settings: cited from earlier work; for MIC50 / MIC90: unit assumed
[9] = test system: Staphylococcus aureus (penicillin susceptible); settings: cited from earlier work; for MIC50 / MIC90: unit assumed
Staphylococcus hominis = settings: n=20; r122; unit assumed; cited from earlier work
Campylobacter jejuni = settings: cited from earlier work; for MIC50 / MIC90: unit assumed
[10] = test system: Staphylococcus aureus (methicillin susceptible); settings: unit assumed, cited from earlier work
[11] = test system: Bordetella bronchiseptica; settings: n=11, r8, cited from earlier work
[12] = test system: Staphylococcus coagulase f; settings: unit assumed; cited from earlier work
[13] = test system: Neisseria gonorrhoeae (non β-lactamase producer); settings: cited from earlier work
[14] = test system: Branhamella (Moraxella) catarrhalis; settings: n=20, unit assumed, cited from earlier work
Haemophilus ducreyi = settings: n=122; r53; unit assumed; cited from earlier work
[15] = test system: Haemophilus influenzae (penicillin resistant); settings: n=20, r66, cited from earlier work
Enterococcus faecium = settings: n=14, r51, cited from earlier work

CC[C@H]1OC(=O)[C@H](C)[C@@H](O[C@H]2C[C@@](C)(OC)[C@@H](O)[C@H](C)O2)[C@H](C)[C@@H](O[C@@H]2O[C@H](C)C[C@H](N(C)C)[C@H]2O)[C@](C)(O)C[C@@H](C)C(=O)[C@H](C)[C@@H](O)[C@]1(C)O [ERYTHROMYCIN, erythromycin]
MIC50 [1]: 64 µg/mL (≈ 87.2 µM) | Range [2]: 0.25-16 | MIC50 ([2]; unit assumed): 8 µg/mL (≈ 10.9 µM) | MIC90 ([2]; unit assumed): 16 µg/mL (≈ 21.8 µM) | MIC90 (Staphylococcus aureus; n=44, r92): 0.5 µg/mL (≈ 0.681 µM) | MIC50 (Staphylococcus aureus; n=100, r93): 0.5 µg/mL (≈ 0.681 µM) | MIC90 (Staphylococcus aureus; n=100, r93): 4 µg/mL (≈ 5.45 µM) | Range (Campylobacter pylori): 0.25-16 | MIC50 (Campylobacter pylori; unit assumed): 0.5 µg/mL (≈ 0.681 µM) | MIC90 (Campylobacter pylori; unit assumed): 1 µg/mL (≈ 1.36 µM) | MIC50 (Ureaplasma urealyticum; n=19, r138): 16 µg/mL (≈ 21.8 µM) | MIC90 (Ureaplasma urealyticum; n=19, r138): 32 µg/mL (≈ 43.6 µM) | MIC50 (Ureaplasma urealyticum; n=28, r137): 2 µg/mL (≈ 2.73 µM) | Range [3]: 0.25-32 | MIC50 ([3]; unit assumed): 0.25 µg/mL (≈ 0.341 µM) | MIC90 ([3]; unit assumed): 32 µg/mL (≈ 43.6 µM) | Range (Neisseria gonorrhoeae): 0.0075-8 | MIC50 (Neisseria gonorrhoeae; unit assumed): 0.25 µg/mL (≈ 0.341 µM) | MIC90 (Neisseria gonorrhoeae; unit assumed): 1 µg/mL (≈ 1.36 µM) | MIC50 [4]: 64 µg/mL (≈ 87.2 µM) | Range (Streptococcus spp.; n=22, r135): 0.015-0.25 | MIC50 (Streptococcus spp.; n=22, r135): 0.03 µg/mL (≈ 0.0409 µM) | MIC90 (Streptococcus spp.; n=22, r135): 0.06 µg/mL (≈ 0.0818 µM) | Range (Streptococcus spp.; n=107, r136): 0.004-2 | MIC50 (Streptococcus spp.; n=107, r136): 0.03 µg/mL (≈ 0.0409 µM) | MIC90 (Streptococcus spp.; n=107, r136): 1 µg/mL (≈ 1.36 µM) | Range (Enterococcus spp.): 0.06-32 | MIC50 (Enterococcus spp.; unit assumed): 2 µg/mL (≈ 2.73 µM) | MIC90 (Enterococcus spp.; unit assumed): 32 µg/mL (≈ 43.6 µM) | Range (Streptococcus agalactiae; n=20, r123): 0.03-0.25 | MIC50 (Streptococcus agalactiae; n=20, r123, unit assumed): 0.03 µg/mL (≈ 0.0409 µM) | Range (Streptococcus agalactiae; n=34, r124): 0.015-0.06 | MIC50 (Streptococcus agalactiae; n=34, r124, unit assumed): 0.03 µg/mL (≈ 0.0409 µM) | MIC90 (Streptococcus agalactiae; n=34, r124, unit assumed): 0.03 µg/mL (≈ 0.0409 µM) | Range ([5]; n=15, r108): 64 | MIC50 ([5]; n=15, r108, unit assumed): 64 µg/mL (≈ 87.2 µM) | Range ([5]; n=20, r110): 64 | MIC50 ([5]; n=20, r110, unit assumed): 64 µg/mL (≈ 87.2 µM) | Range ([5]; n=30, r112): 0.06-32 | MIC50 ([5]; n=30, r112, unit assumed): 32 µg/mL (≈ 43.6 µM) | MIC90 ([5]; n=30, r112, unit assumed): 32 µg/mL (≈ 43.6 µM) | MIC50 (Corynebacterium JK): 2 µg/mL (≈ 2.73 µM) | Range ([6]; n=17, r62): 0.25-4 | Range ([6]; n=46, r60): 0.06-8 | Range [7]: 0.06-8 | Range ([8]; n=12, r86): 0.03-4 | Range ([8]; n=17, r88): 1-4 | Range (Bacteroides fragilis): 0.25-16 | MIC50 (Bacteroides fragilis; unit assumed): 1 µg/mL (≈ 1.36 µM) | MIC90 (Bacteroides fragilis; unit assumed): 8 µg/mL (≈ 10.9 µM) | Range (Haemophilus influenzae; n=97, r55): 0.25-16 | MIC50 (Haemophilus influenzae; n=97, r55): 1 µg/mL (≈ 1.36 µM) | MIC90 (Haemophilus influenzae; n=97, r55): 4 µg/mL (≈ 5.45 µM) | Range (Haemophilus influenzae; n=145, r54): 0.5-8 | MIC50 (Haemophilus influenzae; n=145, r54): 2 µg/mL (≈ 2.73 µM) | MIC90 (Haemophilus influenzae; n=145, r54): 2 µg/mL (≈ 2.73 µM) | MIC50 ([9]; n=20, r94): 0.5 µg/mL (≈ 0.681 µM) | MIC90 ([9]; n=20, r94): 0.5 µg/mL (≈ 0.681 µM) | Range ([9]; n=35, r96): 0.06-32 | MIC50 ([9]; n=35, r96): 0.25 µg/mL (≈ 0.341 µM) | MIC90 ([9]; n=35, r96): 0.5 µg/mL (≈ 0.681 µM) | MIC50 (Staphylococcus hominis): 64 µg/mL (≈ 87.2 µM) | MIC50 (Campylobacter jejuni; n=16, r42): 0.25 µg/mL (≈ 0.341 µM) | MIC90 (Campylobacter jejuni; n=16, r42): 2 µg/mL (≈ 2.73 µM) | Range (Campylobacter jejuni; n=25, r41): 0.5-8 | MIC50 (Campylobacter jejuni; n=25, r41): 1 µg/mL (≈ 1.36 µM) | MIC90 (Campylobacter jejuni; n=25, r41): 4 µg/mL (≈ 5.45 µM) | MIC50 ([10]; n=20, r104): 0.5 µg/mL (≈ 0.681 µM) | MIC90 ([10]; n=20, r104): 0.5 µg/mL (≈ 0.681 µM) | MIC50 ([10]; n=28, r100): 0.25 µg/mL (≈ 0.341 µM) | MIC90 ([10]; n=28, r100): 0.5 µg/mL (≈ 0.681 µM) | MIC50 ([10]; n=97, r102): 0.25 µg/mL (≈ 0.341 µM) | Range [11]: 4-32 | MIC50 ([11]; unit assumed): 8 µg/mL (≈ 10.9 µM) | MIC90 ([11]; unit assumed): 32 µg/mL (≈ 43.6 µM) | MIC50 [12]: 0.25 µg/mL (≈ 0.341 µM) | Range ([13]; n=73, r82): 0.015-4 | Range ([13]; n=78, r84): 0.03-2 | MIC50 ([14]; r13): 0.25 µg/mL (≈ 0.341 µM) | MIC50 ([14]; r15): 0.25 µg/mL (≈ 0.341 µM) | MIC90 ([14]; r15): 1 µg/mL (≈ 1.36 µM) | MIC50 (Haemophilus ducreyi): 4 ng/mL (≈ 0.00545 µM) | MIC90 (Haemophilus ducreyi): 0.06 µg/mL (≈ 0.0818 µM) | Range [15]: 8-16 | MIC50 ([15]; unit assumed): 8 µg/mL (≈ 10.9 µM) | MIC90 ([15]; unit assumed): 16 µg/mL (≈ 21.8 µM) | Range (Enterococcus faecium): 0.06-64 | MIC50 (Enterococcus faecium; unit assumed): 1 µg/mL (≈ 1.36 µM)
